Experimental data published in PubChem BioAssay (NCI).
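96-well plates; 48 h exposure; 5 concentrations. Endpoints by linear interpolation between flanking doses. Not reached: highest tested concentration assigned. The concentration for 50% growth inhibition is given as GI50. TGI: concentration producing complete growth inhibition.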

Legend:
Assay in all cases: inhibition of tumour cell growth, NCI panel, 48 h
RPMI-8226 leukemia = test system: RPMI-8226 leukemia
HCT-116 colon = test system: HCT-116 colon
HCT-15 colon = test system: HCT-15 colon
U251 CNS = test system: U251 CNS
CAKI-1 renal = test system: CAKI-1 renal
EKVX NSCLC = test system: EKVX NSCLC
LOX IMVI melanoma = test system: LOX IMVI melanoma
TK-10 renal = test system: TK-10 renal
MDA-MB-435 = test system: MDA-MB-435
DU-145 prostate = test system: DU-145 prostate

Row | Compound | TGI (RPMI-8226 leukemia) [µM] | TGI (HCT-116 colon) [µM] | TGI (HCT-15 colon) [µM] | TGI (U251 CNS) [µM] | TGI (CAKI-1 renal) [µM] | TGI (EKVX NSCLC) [µM] | TGI (LOX IMVI melanoma) [µM] | TGI (TK-10 renal) [µM] | TGI (MDA-MB-435) [µM] | TGI (DU-145 prostate) [µM] | GI50 (MDA-MB-435) [µM] | GI50 (HCT-15 colon) [µM] | GI50 (DU-145 prostate) [µM] | GI50 (CAKI-1 renal) [µM] | GI50 (EKVX NSCLC) [µM] | GI50 (RPMI-8226 leukemia) [µM] | GI50 (HCT-116 colon) [µM] | GI50 (LOX IMVI melanoma) [µM] | GI50 (TK-10 renal) [µM] | GI50 (U251 CNS) [µM]
1 | O=C(Cc1nc2ccccc2o1)C(=O)Nc1ccc(Cl)cc1Cl | > 100 | > 100 | > 100 | > 100 | > 100 | > 100 |  |  |  |  |  |  |  |  |  |  |  |  |  | 
2 | COC(=O)C1=CCC2c3[nH]c4ccccc4c3CCN2C1 (stereo not given) | > 354 | > 354 | > 354 | > 354 | > 354 | > 354 | > 354 | > 354 |  |  |  |  |  |  |  |  |  |  |  | 
3 | Cc1cc(C)c(/C=N/NS(=O)(=O)c2ccccc2)c(C)c1 | > 100 | > 100 | > 100 | > 100 | > 100 | > 100 | > 100 | > 100 |  |  |  |  |  |  |  |  |  |  |  | 
4 | N#C/C(=C\c1ccc[nH]1)C(=O)c1ccccc1 | > 100 | > 100 | > 100 | > 100 | > 100 | > 100 | > 100 | > 100 |  |  |  |  |  |  |  |  |  |  |  | 
5 | CCc1ccccc1NC(=O)C(=O)C1C(=O)N(c2ccccc2)N=C1N (stereo not given) | > 100 | > 100 | > 100 | > 100 | > 100 | > 100 | > 100 | > 100 |  |  |  |  |  |  |  |  |  |  |  | 
6 | O=C(CCCn1ccnc1[N+](=O)[O-])NCCn1cnc([N+](=O)[O-])n1 | > 100 | > 100 | > 100 | > 100 | > 100 |  | > 100 | > 100 | > 100 | > 100 |  |  |  |  |  |  |  |  |  | 
7 | CCCCCCCCCCCCCCCCCC[S+](C)CC (stereo not given) |  |  | 16.9 |  | 1.6 | 4.31 |  |  | 3.47 | 2.75 | 1.63 | 2.84 | 1.41 | 0.409 | 1.95 |  |  |  |  | 
8 | Cc1ccccc1-n1c(CCl)nc2ccc(Br)cc2c1=O | 71.4 | 21.3 | 14.4 | 25.9 | 3.75 | 35 | 1.46 | 70.1 |  |  |  |  |  |  |  |  |  |  |  | 
9 | CC1C(O)=C(O)c2ccccc2N1O (stereo not given) | > 100 | > 100 | > 100 | > 100 | > 100 | > 100 | > 100 | > 100 |  |  |  |  |  |  |  |  |  |  |  | 
10 | Cc1cc(C)nc(NS(=O)(=O)c2ccc(NC(=O)COC(=O)c3cccc4c(=O)c5ccccc5[nH]c34)cc2)n1 | > 100 | 55 | > 100 | 38.4 | > 100 | > 100 | 40.7 | > 100 |  |  |  |  |  |  |  |  |  |  |  | 
11 | CC1=CC[C@@H](C(C)(C)O)C[C@@H]1O |  | > 5000 | > 5000 | > 5000 |  | > 5000 | > 5000 | > 5000 |  |  |  |  |  |  |  |  |  |  |  | 
12 | CC1=C(C(=O)Nc2ccc(C)cc2)C(c2cccc([N+](=O)[O-])c2)C(C(=O)Nc2ccc(C)cc2)=C(C)N1 |  | > 100 | > 100 | 75.6 | > 100 | 86.1 | 32.3 | > 100 |  |  |  |  |  |  |  |  |  |  |  | 
13 | CC[As](CC)SCC1OC(OC(C)=O)C(OC(C)=O)C(OC(C)=O)C1OC(C)=O (stereo not given) | 36.2 | 32.1 | 26.4 | 25.3 | 10.4 | 37.2 | 33.6 | 30.4 |  |  |  |  |  |  |  |  |  |  |  | 
14 | COC(=O)C1=CC(=O)[C@@H]2CCCC[C@H]12 | > 100 | > 100 | > 100 | > 100 | > 100 |  |  | > 100 |  |  |  |  |  |  |  |  |  |  |  | 
15 | CCN(CC)C(=O)CC12CCCCC1=Nc1ccccc12 (stereo not given) | > 100 | > 100 | > 100 | > 100 | > 100 | > 100 | > 100 | > 100 |  |  |  |  |  |  |  |  |  |  |  | 
16 | COC(=O)C(C(=O)C(=O)Nc1ccccc1C)c1nc2ccc([N+](=O)[O-])cc2[nH]c1=O (stereo not given) | > 100 | > 100 | > 100 | > 100 | > 100 | > 100 | > 100 | > 100 |  |  |  |  |  |  |  |  |  |  |  | 
17 | COc1ccc2nc3ccccc3c(NCCN(CCCl)CCCl)c2c1 |  | 2.08 |  | 2.31 | 0.937 | 8.02 |  | 5.59 |  |  |  |  |  |  |  |  |  |  |  | 
18 | CCN(/N=C1\CC2C=CCN(C2)C(=O)Cc2c1[nH]c1ccccc21)S(=O)(=O)c1ccc(C)cc1 (stereo not given) | > 100 | > 100 | > 100 | > 100 | > 100 | > 100 | > 100 | > 100 |  |  |  |  |  |  |  |  |  |  |  | 
19 | O=C(CC1(O)C(=O)Nc2ccccc21)c1ccccc1O (stereo not given) | > 100 | > 100 | > 100 |  | > 100 | > 100 | > 100 | > 100 |  |  |  |  |  |  |  |  |  |  |  | 
20 | O=C(Nc1cccc(-n2cc(-c3ccncc3)c(-c3ccc(Cl)c(O)c3)n2)c1)Nc1ccc(Cl)c(Cl)c1 | > 32.5 | 5.73 | 29.6 | 9.68 | 14.3 |  | 3.57 | > 32.5 | 6.05 | > 32.5 | 1.1 | 1.23 | 1.5 | 1.11 |  | 1.03 | 1.19 | 0.939 | 1.91 | 1.51
21 | COc1cc(N2CCC(N)CC2)ccc1Nc1ncc(Cl)c(-c2c[nH]c3ccccc23)n1 | 3.89 | 1.78 | 1.96 | 1.79 | 2.1 |  | 1.58 | 1.6 | 1.77 | 1.88 | 0.266 | 0.323 | 0.34 | 0.335 |  | 1.28 | 0.422 | 0.226 | 0.36 | 0.407
22 | Fc1ccc(N=C2C=CC(=Nc3ccc(F)cc3)c3ccccc32)cc1 | > 100 | > 100 | > 100 | > 100 |  | > 100 | > 100 | > 100 |  |  |  |  |  |  |  |  |  |  |  | 
23 | O=C1c2ccc3c4c(ccc(c24)C(=O)N1CCNCc1ccccc1)C(=O)N(CCNCc1ccccc1)C3=O | 5.12 | 2.89 | 2.92 | 5.42 | 4.91 | 6.02 | 3.16 | > 100 |  | 11.4 |  | 1.43 | 2.76 | 1.88 | 2.03 | 2 | 1.42 | 1.67 | 2.93 | 2.02
